Series [1] deals with phosphorylation of AKT (pAKT) in T47D cells expressing mutant PI3Ka (H1047R). Briefly: In vitro cell pAKT (Ser473) HTRF, T47D cells. The class given is cell-based. The settings on record: inhibition of pAKT, read-out: Avg T-47D IC50. The essentials: (§1)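 T47D (PI3Kα H1047R; RPMI, 10% FBS, insulin) or SKBR3 (WT PI3Kα; McCoy's 5a, 10% FBS) cells, 5000/well, are treated with 10-point compound dilutions for 6 h at 37° C. Lysates are read for pAKT Ser473 by HTRF. Inhibition is normalised to DMSO (0%) and 10 μM alpelisib (100%), and IC50 comes from a four-parameter fit.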

The subject of series [2] is SKBR3 cells express WT PI3Ka. As to the kind of experiment: In vitro cell proliferation (CellTiter-Glo, 72 hours), SKBR3 cells. The format is cell-based. The conditions noted are these: inhibition of proliferation. The essentials: (§2)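 1,500 cells/well (T47D in RPMI/10% FBS/insulin 0.2 units/mL; SKBR3 in McCoys 5a/10% FBS) plated onto 10-point compound dilutions and grown 72 h at 37 °C, 5% CO2; CellTiter-Glo luminescence. Inhibition scaled between 0.1% DMSO and 10 uM alpelisib; EC50 from four-parameter logistic fit.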

A short description of series [3]: Mouse pharmacokinetics, single IV or PO dose, plasma LC/MS/MS. The format is in vivo. The settings on record: CD1 mice; for PK-Mouse: PO F: PO 10 mg/kg vs IV 1 mg/kg; for AUC(0-t) / clearance: mouse, plasma; for clearance: read-out: PK-Mouse: IV Cl. As to the method: CD1 mice were dosed with a single IV or PO dose, followed by serial sampling of plasma at 0.0833 (IV only), 0.25, 0.5, 1, 2, 4, 8, 24 hours post dose. Desired serial concentrations of working solutions were achieved by diluting stock solution of analyte with 50% acetonitrile in water solution. 10 μL of working solutions (0.5, 1, 2, 5, 10, 50, 100, 500, 1000 ng/mL) were added to 10 μL of the blank Female CD1 Mouse plasma to achieve calibration standards of 0.5~1000 ng/mL (0.5, 1, 2, 5, 10, 50, 100, 500, 1000 ng/mL) in a total volume of […]. Five quality control samples at 1 ng/mL, 2 ng/mL, 5 ng/mL, 50 ng/mL and 800 ng/mL for plasma were prepared independently of those used for the calibration curves. These QC samples were prepared on the day of analysis in the same way as calibration standards. 20 μL standards, 20 μL QC samples and 20 μL unknown samples (10 μL plasma with 10 μL blank solution) were added to 200 μL of acetonitrile containing IS mixture for precipitating protein respectively. Then the samples were vortexed for 30 s. after centrifugation at 4° Celsius, 4000 rpm for 15 min. The supernatant was diluted with water at a ratio of 1:2 (V/V, 1:2), Then 5 μL of diluted supernatant was injected into the LC/MS/MS system for quantitative analysis.

For series [4], the system named is phosphorylation of AKT (pAKT) in SKBR3 cells express WT PI3Ka. As to the kind of experiment: In vitro cell pAKT (Ser473) HTRF, SKBR3 cells. The conditions noted are these: inhibition of pAKT. The format is cell-based. The essentials: as §1
Series [5] concerns T47D cells expressing mutant PI3Ka (H1047R). As to the kind of experiment: In vitro cell proliferation (CellTiter-Glo, 72 hours), T47D cells. The class given is cell-based. The conditions noted are these: inhibition of proliferation, read-out: Avg T-47D EC50. In short, it runs like this:
as §2

Where [6] appears, read: IV 1 mg/kg, solution in 20% PEG400/20% PG/60% of 20% HPBCD solution in water, read-out: PK-Mouse: IV AUC last.
[7] abbreviates: IV 1 mg/kg, solution in 20% PEG400/20% PG/60% of 20% HPBCD solution in water.
Setting [8] is: PO 10 mg/kg, suspension in 30% SBEβCD in water, read-out: PK-Mouse PO AUC last.

Where two headings read alike, the source gives them in different places.

The term IC50 denotes the concentration that inhibits the measured activity by half. As a reminder, the EC50 is the concentration at which the effect is half-maximal. `Cc1cc(C(C)Nc2ccc(F)cc2C(=O)O)c2nc(N3CCC(C)(C)CC3)n(C)c(=O)c2c1` (single isomer, unassigned) [Example 29, 2-((1-(2-(4,4-dimethylpiperidin-1-yl)-3,6-dimethyl-4-oxo-3,4-dihydroquinazolin-8-yl)ethyl)amino)-5-fluorobenzoic acid]: the IC50 in series [1] (6 hour) is 0.001 to 1 µM; in series [4] (Homo sapiens, SK-BR-3, 6 h), > 15 µM. Also, the EC50 in series [2] (Homo sapiens, SK-BR-3, 72 h) fell in the range of 2 to 15 µM; in series [5] it was 0.001 to 0.5 µM. Also, the “PK-Mouse: PO F” value in series [3] turned out to be 61%. For the same compound, the AUC(0-t) in series [3] (setting [6]) turned out to be 1740 ng·h/mL; in series [3] (setting [8]), 10700 ng·h/mL. Besides, the clearance in series [3] (setting [7]) came out at 8.7 mL/min/kg.

On to `CC(Nc1ccccc1C(=O)O)c1cc(F)cc2c(=O)n(C)c(N3CCN(CC(F)(F)F)CC3)nc12` (single isomer, unassigned) [Example 35, 2-((1-(6-fluoro-3-methyl-4-oxo-2-(4-(2,2,2-trifluoroethyl)piperazin-1-yl)-3,4-dihydroquinazolin-8-yl)ethyl)amino)benzoic acid], for which the IC50 in series [1] (6 hour) is 0.001 to 1 µM; in series [4] (Homo sapiens, SK-BR-3, 6 h) it was > 15 µM. Besides, the EC50 in series [2] (Homo sapiens, SK-BR-3, 72 h) is > 15 µM; in series [5] it was 0.5 to 2 µM. Also, the “PK-Mouse: PO F” value in series [3] was found to be 187%. Also, the AUC(0-t) in series [3] (setting [6]) turned out to be 242 ng·h/mL; in series [3] (setting [8]), 4520 ng·h/mL. In series [3] (setting [7]), the clearance stood at 59.5 mL/min/kg.

As for `Cc1cc(C(C)Nc2ccccc2C(=O)O)c2nc(N3CCC(C)(C)CC3)n(C3CC3)c(=O)c2c1` (single isomer, unassigned) [Example 49, 2-((1-(3-cyclopropyl-2-(4,4-dimethylpiperidin-1-yl)-6-methyl-4-oxo-3,4-dihydroquinazolin-8-yl)ethyl)amino)benzoic acid], the IC50 in series [1] (6 hour) was 1 to 5 µM; in series [4] (Homo sapiens, SK-BR-3, 6 h), > 15 µM. Besides, the EC50 in series [2] was in the range of 2 to 15 µM; in series [5] (Homo sapiens, T47D, 72 h) it was 2 to 15 µM.

As for `Cc1cc(C(C)Nc2ccccc2C(=O)O)c2nc(N3CCC(C)(C)CC3)n(C3CC3)c(=O)c2c1` (single isomer, unassigned) [Example 50, 2-((1-(3-cyclopropyl-2-(4,4-dimethylpiperidin-1-yl)-6-methyl-4-oxo-3,4-dihydroquinazolin-8-yl)ethyl)amino)benzoic acid], the IC50 in series [1] (6 hour) and in series [4] (6 hour) was > 15 µM throughout. Moreover, the EC50 in series [2] was > 15 µM; in series [5], 2 to 15 µM.

For the compound `Cc1cc(C(C)Nc2ccccc2C(=O)O)c2nc(N3CCC(C)(C)CC3)n(CF)c(=O)c2c1` (single isomer, unassigned) [Example 51, 2-((1-(2-(4,4-dimethylpiperidin-1-yl)-3-(fluoromethyl)-6-methyl-4-oxo-3,4-dihydroquinazolin-8-yl)ethyl)amino)benzoic acid], the IC50 in series [1] (6 hour) was 5 to 15 µM; in series [4] (Homo sapiens, SK-BR-3, 6 h), > 15 µM. For the same compound, the EC50 in series [2] was in the range of 2 to 15 µM; in series [5] (Homo sapiens, T47D, 72 h), 2 to 15 µM.

Regarding `Cc1cc(C(C)Nc2ccccc2C(=O)O)c2nc(N3CCC(C)(C)CC3)n(CF)c(=O)c2c1` (single isomer, unassigned) [Example 52, 2-((1-(2-(4,4-dimethylpiperidin-1-yl)-3-(fluoromethyl)-6-methyl-4-oxo-3,4-dihydroquinazolin-8-yl)ethyl)amino)benzoic acid], the IC50 in series [1] (6 hour) and in series [4] (6 hour) was > 15 µM in each case. For the same compound, the half-maximal effective concentration (EC50) was > 15 µM in series [2] and 2 to 15 µM in series [5].

On to `Cc1cc(C(C)Nc2cccc(F)c2C(=O)O)c2nc(N3CCC(C)(C)CC3)n(C)c(=O)c2c1` (stereo not drawn) [Example 28, 2-((1-(2-(4,4-dimethylpiperidin-1-yl)-3,6-dimethyl-4-oxo-3,4-dihydroquinazolin-8-yl)ethyl)amino)-6-fluorobenzoic acid], for which the IC50 in series [1] (Homo sapiens, T47D, 6 h) is 0.001 to 1 µM; in series [4] (Homo sapiens, SK-BR-3, 6 h), > 15 µM. Also, the concentration giving a half-maximal response (EC50) is > 15 µM in series [2] (Homo sapiens, SK-BR-3, 72 h) and 2 to 15 µM in series [5] (Homo sapiens, T47D, 72 h).
